Reference: patent US20090068286A1, “METHOD OF TREATING CANCER BY ADMINISTRATION OF 5-SUBSTITUTED NUCLEOSIDES” (RESprotect, GmbH, priority 2007, published 2009)
Several values for one entry are separate records, joined by “and”; a condition that tells them apart may be missing. Identical values can stand only once. Like-named read-outs stand apart in the source and are kept apart here.

Test: Plasma concentrations of BVDU, BVU and GEM in patients of the dose finding study (HPLC)
Format: in vivo, human
Details: for concentration at 0 hr / concentration at 0 h / concentration at 0.5 hr / concentration at 1 hr / concentration at 1.5 hr / concentration at 2 hr / concentration at 3 hr / concentration at 4 hr / concentration at 4 h / concentration at 5 hr / concentration at 9 hr / concentration at 0.5 h / concentration at 1 h / concentration at 1.5 h / concentration at 2 h / concentration at 3 h / concentration at 5 h / concentration at 9 h: human, plasma, po; for concentration at 0 hr / concentration at 0 h / concentration at 0.5 hr / concentration at 1 hr / concentration at 1.5 hr / concentration at 2 hr / concentration at 3 hr / concentration at 4 hr / concentration at 4 h / concentration at 5 hr / concentration at 9 hr / concentration at 0.5 h / concentration at 1 h / concentration at 1.5 h / concentration at 2 h / concentration at 3 h / concentration at 5 h / concentration at 9 h / BVDU plasma concentration, patient: day 1, oral BVDU
Procedure: Dose finding study: 22 Patients with advanced pancreatic adenocarcinoma were eligible for treatment in this single arm study. The mean age was 60 years and 73% of patients were males. One patient without progressive disease was excluded from the study for withdrawal of consent after the first cycle. Of the 21 patients left, 15 were in stage IV and 6 in stage III. BVDU was administered in a combination with GEM. On day 1, on day 8 and on day 15 of each 28-day cycle, BVDU was given together with GEM. On days 2-4, on days 8-11, and on days 15-18 of a 28-day cycle, BVDU was given alone in the recovery phase.
The starting dose of BVDU was 4×125 mg/day (total dose of 6,000 mg per treatment cycle) together with a fixed dose of GEM (1,000 mg/M^2). Subsequent total doses of BVDU per cycle were 7,500 mg, 9,000 mg, 10,500 mg, and 12,000 mg again in four patients per cohort. Dosage levels were administered as follows: First dose level: The starting dose of BVDU was 4×125 mg daily given at approximately 08:00 a.m. (1×125 mg BVDU), 12:00 a.m. (1×125 mg BVDU), 04:00 p.m. (1×125 mg BVDU), and 08:00 p.m. (1×125 mg BVDU). These doses were administered on days 1 to 4, days 8 to 11 and days 15 to 18; Second dose level: 1×250 mg+3×125 mg daily; Third dose level. 2×250 mg+2×125 mg daily; Forth dose level: 3×250 mg+1×125 mg daily; and, Fifth dose level: 4×250 mg daily.
Approximately 1 hour after the 08:00 a.m. BVDU-administration on day 1, day 8 and day 15 of a cycle, the GEM infusion started and GEM was infused for 30 minutes.
Analysis of the concentrations of GEM and BVDU (BVDU) as well as analysis of the concentrations of BVU ((E)-5-(2-bromovinyl)uracil, degradation product of BVDU) in plasma samples: 0.5 ml of plasma spiked with about 0.5 μg of 4-Propyl-2-thiouracil (PTU) as internal standard was extracted with 2.5 ml of methanol-acetonitrile (v/v, 1:9) by vigorous mixing for about 1 min. After centrifugation the supernatant was transferred to a beaker and evaporated to dryness at 50° C. under a gentle stream of nitrogen. The residue was dissolved in 1 ml of the solution used as mobile phase by 10 min treatment in an ultrasonic bath. After centrifugation the clear supernatant was used for HPLC-analysis. The concentrations of GEM and BVDU were calculated using a calibration curve with the respective standard substances. The concentrations of BVU were calculated using the calibration curve of BVDU and the determined response factor. Limits of detection: BVDU 20 ng/ml plasma; GEM 30 ng/ml plasma. Limits of quantification: BVDU 60 ng/ml plasma; GEM 100 ng/ml plasma.
Pharmacokinetic Results BVDU: All measurements were performed within 9 hours. Therefore, only the first three intakes of BVDU-tablets were relevant in this context, and as consequence, in dose groups four and five the intake of tablets was identical. When the dose was doubled from 125 mg to 250 mg, the mean maximum BVDU concentration in plasma increased fivefold from 290 (±152) ng/ml to 1549 (±1058) ng/ml (FIG. 10).

[1] = both sexes, dose level 6000 mg, read-out: BVDU plasma concentration, Mean
[2] = both sexes, dose level 6000 mg, read-out: BVDU plasma concentration, Median
[3] = both sexes, dose level 7500 mg, read-out: BVDU plasma concentration, Mean
[4] = both sexes, dose level 10500 mg, read-out: BVDU plasma concentration, Mean
[5] = both sexes, dose level 10500 mg, read-out: BVDU plasma concentration, Median
[6] = both sexes, dose level 12000 mg, read-out: BVDU plasma concentration, Mean
[7] = both sexes, dose level 12000 mg, read-out: BVDU plasma concentration, Median
[8] = dose level 7500 mg, read-out: BVDU plasma concentration, Median
[9] = dose level 9000 mg, read-out: BVDU plasma concentration, Mean
[10] = dose level 9000 mg, read-out: BVDU plasma concentration, Median

## O=c1[nH]c(=O)n([C@H]2C[C@H](O)[C@@H](CO)O2)cc1/C=C/Br [BVDU, (E)-5-(2-bromovinyl)-2′-deoxyuridine]
BVDU dose 125 mg
  Mean maximum BVDU concentration in plasma: 290 (±152) ng/ml
BVDU dose 250 mg
  Mean maximum BVDU concentration in plasma: 1549 (±1058) ng/ml
[1]
  concentration at 0 hr: 0 ng/mL
  concentration at 0.5 hr: 213 ng/mL
  concentration at 1 hr: 177 ng/mL
  concentration at 2 hr: 231 ng/mL
  concentration at 3 hr: 175 ng/mL
  concentration at 5 hr: 300 ng/mL
  concentration at 9 hr: 391 ng/mL
[2]
  concentration at 0 hr: 0 ng/mL
  concentration at 0.5 hr: 213 ng/mL
  concentration at 1 hr: 109 ng/mL
  concentration at 2 hr: 207 ng/mL
  concentration at 3 hr: 133 ng/mL
  concentration at 5 hr: 334 ng/mL
  concentration at 9 hr: 403 ng/mL
Both sexes, dose level 6000 mg, read-out: BVDU plasma concentration, patient
  concentration at 0 h: 0 ng/mL
Both sexes, dose level 6000 mg, 1.5 hr, read-out: BVDU plasma concentration, Mean
  concentration at 1.5 hr: 250 ng/mL
Both sexes, dose level 6000 mg, 1.5 hr, read-out: BVDU plasma concentration, Median
  concentration at 1.5 hr: 226 ng/mL
Both sexes, dose level 6000 mg, 4.0 hr, read-out: BVDU plasma concentration, Mean
  concentration at 4 hr: 113 ng/mL
Both sexes, dose level 6000 mg, 4.0 hr, read-out: BVDU plasma concentration, Median
  concentration at 4 hr: 122 ng/mL
Both sexes, dose level 6000 mg, 4.0 hr, read-out: BVDU plasma concentration, patient
  concentration at 4 h: 126 ng/mL
[3]
  concentration at 0 hr: 0 ng/mL
  concentration at 0.5 hr: 1600 ng/mL
  concentration at 1 hr: 872 ng/mL
  concentration at 2 hr: 454 ng/mL
  concentration at 3 hr: 302 ng/mL
  concentration at 9 hr: 952 ng/mL
Both sexes, dose level 7500 mg, read-out: BVDU plasma concentration, patient
  concentration at 0 hr: 0 ng/mL
Both sexes, dose level 7500 mg, 1.5 hr, read-out: BVDU plasma concentration, Mean
  concentration at 1.5 hr: 555 ng/mL
Both sexes, dose level 7500 mg, 4.0 hr, read-out: BVDU plasma concentration, Mean
  concentration at 4 hr: 243 ng/mL
[4]
  concentration at 0 h: 0 ng/mL
  concentration at 0.5 h: 1110 ng/mL
  concentration at 1 h: 1010 ng/mL
  concentration at 2 h: 697 ng/mL
  concentration at 3 h: 453 ng/mL
  concentration at 5 h: 400 ng/mL
  concentration at 9 h: 2070 ng/mL
[5]
  concentration at 0 h: 0 ng/mL
  concentration at 0.5 h: 1150 ng/mL
  concentration at 1 h: 1010 ng/mL
  concentration at 2 h: 669 ng/mL
  concentration at 3 h: 279 ng/mL
  concentration at 5 h: 410 ng/mL
  concentration at 9 h: 1390 ng/mL
Both sexes, dose level 10500 mg, read-out: BVDU plasma concentration, patient
  concentration at 0 h: 0 ng/mL
Both sexes, dose level 10500 mg, 1.5 hr, read-out: BVDU plasma concentration, Mean
  concentration at 1.5 h: 636 ng/mL
Both sexes, dose level 10500 mg, 1.5 hr, read-out: BVDU plasma concentration, Median
  concentration at 1.5 h: 566 ng/mL
Both sexes, dose level 10500 mg, 4.0 hr, read-out: BVDU plasma concentration, Mean
  concentration at 4 h: 206 ng/mL
Both sexes, dose level 10500 mg, 4.0 hr, read-out: BVDU plasma concentration, Median
  concentration at 4 h: 212 ng/mL
[6]
  concentration at 0 h: 0 ng/mL
  concentration at 0.5 h: 1490 ng/mL
  concentration at 1 h: 1160 ng/mL
  concentration at 2 h: 904 ng/mL
  concentration at 3 h: 738 ng/mL
  concentration at 5 h: 2080 ng/mL
  concentration at 9 h: 2340 ng/mL
[7]
  concentration at 0 h: 0 ng/mL
  concentration at 0.5 h: 672 ng/mL
  concentration at 1 h: 1020 ng/mL
  concentration at 2 h: 561 ng/mL
  concentration at 3 h: 407 ng/mL
  concentration at 5 h: 1070 ng/mL
  concentration at 9 h: 1780 ng/mL
Both sexes, dose level 12000 mg, read-out: BVDU plasma concentration, patient
  concentration at 0 h: 0 ng/mL
Both sexes, dose level 12000 mg, 1.5 hr, read-out: BVDU plasma concentration, Mean
  concentration at 1.5 h: 1050 ng/mL
Both sexes, dose level 12000 mg, 1.5 hr, read-out: BVDU plasma concentration, Median
  concentration at 1.5 h: 844 ng/mL
Both sexes, dose level 12000 mg, 1.5 hr, read-out: BVDU plasma concentration, patient
  concentration at 1.5 h: 844 ng/mL
Both sexes, dose level 12000 mg, 4.0 hr, read-out: BVDU plasma concentration, Mean
  concentration at 4 h: 543 ng/mL
Both sexes, dose level 12000 mg, 4.0 hr, read-out: BVDU plasma concentration, Median
  concentration at 4 h: 440 ng/mL
Dose doubled from 125 mg to 250 mg
  Increase of mean maximum BVDU concentration in plasma: fivefold
Dose level 6000 mg, 4.0 hr
  BVDU plasma concentration, patient: 122 ng/mL and 90 ng/mL
Dose level 12000 mg, 1.5 hr
  BVDU plasma concentration, patient: 1524 ng/mL and 792 ng/mL
[8]
  concentration at 0 h: 0 ng/mL
  concentration at 0.5 h: 1130 ng/mL
  concentration at 1 h: 484 ng/mL
  concentration at 2 h: 403 ng/mL
  concentration at 3 h: 304 ng/mL
  concentration at 5 h: 776 ng/mL
  concentration at 9 h: 898 ng/mL
Dose level 7500 mg, 1.5 hr, read-out: BVDU plasma concentration, Median
  concentration at 1.5 h: 644 ng/mL
Dose level 7500 mg, 4.0 hr, read-out: BVDU plasma concentration, Median
  concentration at 4 h: 242 ng/mL
Dose level 7500 mg, read-out: BVDU plasma concentration, Mean
  concentration at 5 h: 641 ng/mL
[9]
  concentration at 0 h: 0 ng/mL
  concentration at 0.5 h: 942 ng/mL
  concentration at 1 h: 784 ng/mL
  concentration at 2 h: 701 ng/mL
  concentration at 3 h: 464 ng/mL
  concentration at 5 h: 1300 ng/mL
  concentration at 9 h: 1510 ng/mL
[10]
  concentration at 0 h: 0 ng/mL
  concentration at 0.5 h: 979 ng/mL
  concentration at 1 h: 781 ng/mL
  concentration at 2 h: 705 ng/mL
  concentration at 3 h: 441 ng/mL
  concentration at 5 h: 1020 ng/mL
  concentration at 9 h: 1630 ng/mL
Dose level 9000 mg, read-out: BVDU plasma concentration, patient
  concentration at 0 h: 0 ng/mL
Dose level 9000 mg, 1.5 hr, read-out: BVDU plasma concentration, Mean
  concentration at 1.5 h: 697 ng/mL
Dose level 9000 mg, 1.5 hr, read-out: BVDU plasma concentration, Median
  concentration at 1.5 h: 530 ng/mL
Dose level 9000 mg, 4.0 hr, read-out: BVDU plasma concentration, Mean
  concentration at 4 h: 420 ng/mL
Dose level 9000 mg, 4.0 hr, read-out: BVDU plasma concentration, Median
  concentration at 4 h: 378 ng/mL
